Among the data in patent US12528790B2, “Amide derivative having antiviral activity” (Shionogi & Co., Ltd., priority 2020, dated 2026) are EC50 values, retold here.

One assay concerns RSV A2 strain. Description: In vitro CPE (CytoPathic Effect) inhibition effect evaluation test, RSV type A. The class given is cell-based. The settings on record: human respiratory syncytial virus, HEp-2. In a few lines: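 EC50 is the concentration giving 50% inhibition of virus-induced cytopathic effect, fitted by nonlinear regression from CellTiter-Glo 2.0 viability. Compounds in 3-fold series were co-incubated at 37 °C with HEp-2 cells and RSV: A2 strain for 4 days, B (Wash/18537) for 5 days; uninfected wells served as control.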
`NC(=O)C1(NC(=O)c2cnc(N3CC4(CCNCC4)c4cc(OCCC5CCOCC5)ccc43)nc2C(F)(F)F)C2CC3CC(C2)CC1C3` (centres unmarked) [Compound I-171]: the EC50 was 10 to 100 nM.

The same assay, now with this note: human respiratory syncytial virus; inhibitory effect against RSV type A (RSV A2 strain), HEp-2 cells, CPE inhibition; read-out: EC50.
On to `COc1ccc2c(c1)c(-c1ncc(C(=O)NC3(C(=O)O)C4CC5CC(C4)CC3C5)c(C(F)(F)F)n1)cn2C1CCC(F)(F)CC1` (centres unmarked) [Compound I-454], for which the EC50 is 10 to 100 nM. For the compound `O=C(NC1(C(=O)O)C2CC3CC(C2)CC1C3)c1cnc(-c2cn(C3CCOC3)c3cc(OC4CCN(c5ncc(F)cn5)CC4)ccc23)nc1C(F)(F)F` (racemic) [Compound I-410], the EC50 is less than 10 nM. Still for that read-out and setting: then `CN(CC(F)(F)F)[C@H]1CC[C@H](Oc2ccc3c(-c4ncc(C(=O)NC5(C(=O)O)C6CC7CC(C6)CC5C7)c(C(F)(F)F)n4)cn(C4CCC(F)(F)CC4)c3c2)CC1` (some centres unmarked) [Compound I-450], with less than 10 nM.

As for `COCCCCOc1ccc2c(c1)CCN2c1ncc(C(=O)NC2(C(=O)O)CC3CCC2C3)c(C(F)(F)F)n1` (centres unmarked) [Compound I-11], the EC50 is less than 10 nM.

In the case of `O=C(NC1(C(=O)O)C2CC3CC(C2)CC1C3)c1cnc(-c2cn(C3CCC(F)(F)CC3)c3cc(OC4CCN(C(=O)C5CC5)CC4)ccc23)nc1C(F)(F)F` (centres unmarked) [Compound I-258], the concentration giving a half-maximal response (EC50) was less than 10 nM. Same read-out and setting: then `CC(C)N1CCC(Oc2ccc3c(c2)C2(CCOCC2)CN3c2ncc(C(=O)NC3(C(=O)O)C4CC5CC(C4)CC3C5)c(C(F)(F)F)n2)CC1` (centres unmarked) [Compound I-209], with less than 10 nM; and `O=C(NC1(C(=O)O)C2CC3CC(C2)CC1C3)c1cnc(-c2cn(C3CCOCC3)c3cc(OCCC4CCOCC4)ccc23)nc1C(F)(F)F` (centres unmarked) [Compound I-131], with less than 10 nM; and `Cn1cc(-c2ncc(C(=O)NC3(C(=O)O)C4CC5CC(C4)CC3C5)c(C(F)(F)F)n2)c2ccc(OCCC3CCOCC3)cc21` (centres unmarked) [Compound I-116], with less than 10 nM. Still for that read-out and setting: then `CCc1ccc2c(c1)C1(CCOCC1)CN2c1ncc(C(=O)NC2(C(=O)O)C3CC4CC(C3)CC2C4)c(C(F)(F)F)n1` (centres unmarked) [Compound I-133], with less than 10 nM; and `O=C(NC1(C(=O)O)CCCCC1)c1cnc(N2CCc3cc(O[C@@H]4CCN(c5ncccn5)C4)ccc32)nc1C(F)(F)F` [Compound I-74], with less than 10 nM; and `O=C(NC1(C(=O)O)C2CC3CC(C2)CC1C3)c1ccc(-c2cn(CCO)c3cc(OC4CCN(c5ncccn5)CC4)ccc23)nc1C(F)(F)F` (centres unmarked) [Compound I-200], with less than 10 nM. The same measure, in the same setting: then `O=C(NC1(C(=O)O)CCC(F)(F)CC1)c1cnc(N2CCc3cc(OC4CCN(c5ncccn5)CC4)ccc32)nc1C(F)(F)F` [Compound I-49], with 10 to 100 nM; and `NCCc1nc(N2CCc3cc(OCCC4CCOCC4)ccc32)nc(C(F)(F)F)c1C(=O)NC1(C(=O)O)C2CC3CC(C2)CC1C3` (centres unmarked) [Compound I-167], with 100 to 5000 nM.

Consider `O=C(NC1(C(=O)O)C2CC3CC(C2)CC1C3)c1cnc(-c2cn(C3CCC(F)(F)CC3)c3cc(OC4CCN(C5CCOC5)CC4)ccc23)nc1C(F)(F)F` (racemic) [Compound I-277], for which the EC50 was less than 10 nM. Regarding `O=C(NC1(C(=O)O)C2CC3CC(C2)CC1C3)c1ccc(-c2cn(C3CCC(F)(F)CC3)c3cc(OC4CCN(C5COC5)CC4)ccc23)nc1C(F)(F)F` (centres unmarked) [Compound I-240], the EC50 was less than 10 nM. Same read-out and setting: under `O=C(NC1(C(=O)O)C2CC3CC(C2)CC1C3)c1cnc(-c2cn(C3CCC(F)(F)CC3)c3cc(OC4CCC(F)(F)CC4)ccc23)nc1C(F)(F)F` (centres unmarked) [Compound I-419] stands less than 10 nM; under `O=C(NC1(C(=O)O)C2CC3CC(C2)CC1C3)c1cnc(N2CCc3cc(OC4CCN(C5COC5)CC4)ccc32)nc1C(F)(F)F` (centres unmarked) [Compound I-220], less than 10 nM; under `O=C(NC1(C(=O)O)C2CC3CC(C2)CC1C3)c1cnc(N2CC3(CCCCC3)c3cc(OC4CCN(c5ncc(F)cn5)CC4)ccc32)nc1C(F)(F)F` (centres unmarked) [Compound I-383], less than 10 nM.

As for `O=C(NC1(C(=O)O)C2CC3CC(C2)CC1C3)c1ccc(-c2cn(-c3cncnc3)c3cc(OC4CCN(c5ncccn5)CC4)ccc23)nc1C(F)(F)F` (centres unmarked) [Compound I-196], the EC50 is less than 10 nM.

In the case of `O=C(NC1(C(=O)O)C2CC3CC(C2)CC1C3)c1ccc(-c2cn(CC3CC(F)(F)C3)c3cc(OC4CCN(c5ncccn5)CC4)ccc23)nc1C(F)(F)F` (centres unmarked) [Compound I-264], the EC50 was less than 10 nM. Consider `CC(F)(F)c1nc(N2CCc3cc(OCCC4CCOCC4)ccc32)ncc1C(=O)NC1(C(=O)O)C2CC3CC(C2)CC1C3` (centres unmarked) [Compound I-161], for which the EC50 was less than 10 nM. Same read-out and setting: then `O=C(NC1(C(=O)O)C2CC3CC(C2)CC1C3)c1cnc(-c2cn(C3CCC(F)(F)CC3)c3cc(C(=O)N4CCC(N5CC(F)(F)C5)CC4)ccc23)nc1C(F)(F)F` (centres unmarked) [Compound I-416], with less than 10 nM; and `O=C(NC1(C(=O)O)C2CC3CC(C2)CC1C3)c1ccc(N2CCc3cc(OCCC4CCOCC4)ccc32)cc1C(F)(F)F` (centres unmarked) [Compound I-123], with less than 10 nM; and `COc1ccnc(N2CCC(Oc3ccc4c(c3)CCN4c3ncc(C(=O)NC4(C(=O)O)CCCCC4)c(C(F)(F)F)n3)CC2)c1` [Compound I-79], with 10 to 100 nM.

As to `CC(C)(C)CC(NC(=O)c1cnc(-c2cn(C3CCC(F)(F)CC3)c3cc(OC4CCN(c5ncccn5)CC4)ccc23)nc1C(F)(F)F)C(=O)O` (racemic) [Compound I-271], the EC50 is less than 10 nM. Take `COc1cccc(CCc2ccc3c(c2)CCN3c2ncc(C(=O)NC3(C(=O)O)CCCCC3)c(C(F)(F)F)n2)c1` [Compound I-26]: the EC50 was in the range of 10 to 100 nM. On the same count and under the same terms, then `NC(=O)C1(NC(=O)c2ccc(N3CC4(CCOCC4)c4cc(OC5CCN(c6ncccn6)CC5)ccc43)nc2C(F)(F)F)C2CC3CC(C2)CC1C3` (centres unmarked) [Compound I-169], with less than 10 nM; and `CCC(F)(F)c1nc(N2CCc3cc(OCCC4CCOCC4)ccc32)ncc1C(=O)NC1(C(=O)O)C2CC3CC(C2)CC1C3` (centres unmarked) [Compound I-178], with 10 to 100 nM. In the case of `O=C(NC1(C(=O)O)C2CC3CC(C2)CC1C3)c1ccc(-c2cn(CC3CC3(F)F)c3cc(OC4CCN(c5ncccn5)CC4)ccc23)nc1C(F)(F)F` (racemic) [Compound I-266], the EC50 is less than 10 nM. Still for that read-out and setting: then `O=C(NC1(C(=O)O)C2CC3CC(C2)CC1C3)c1cnc(N2CC3(CCOCC3)c3cc(OC4CN(C(=O)OCc5ccccc5)C4)ccc32)nc1C(F)(F)F` (centres unmarked) [Compound I-224], with less than 10 nM. On to `O=C(NC1(C(=O)O)C2CC3CC(C2)CC1C3)c1ccc(-c2cn([C@H]3CC[C@@H](OCc4ccccc4)CC3)c3cc(OC4CCN(c5ncccn5)CC4)ccc23)nc1C(F)(F)F` (some centres unmarked) [Compound I-188], for which the EC50 is less than 10 nM. Same read-out and setting: under `O=C(NC1(C(=O)O)C2CC3CC(C2)CC1C3)c1cnc(-c2cn(C3CCC(F)(F)CC3)c3cc(OC4CN(c5ncc(F)cn5)C4)ccc23)nc1C(F)(F)F` (centres unmarked) [Compound I-387] stands less than 10 nM; under `O=C(NC1(C(=O)O)C2CC3CC(C2)CC1C3)c1cnc(-c2cn(C3CCC(F)(F)CC3)c3cc(OC4CCC(C(F)(F)F)CC4)ccc23)nc1C(F)(F)F` (centres unmarked) [Compound I-428], less than 10 nM.

Staying with this assay, now noted: inhibitory effect against RSV type A (RSV A2 strain), HEp-2 cells, CPE inhibition; read-out: EC50.
With `O=C(NC1(C(=O)O)C2CC3CC(C2)CC1C3)c1cnc(N2CC3(CCOCC3)c3cc(Cc4ccccc4)ccc32)nc1C(F)(F)F` (centres unmarked) [Compound I-293], the EC50 was in the range of 10 to 100 nM. Same read-out and setting: then `CC1CN(c2ncccn2)CCC1Oc1ccc2c(-c3ncc(C(=O)NC4(C(=O)O)C5CC6CC(C5)CC4C6)c(C(F)(F)F)n3)cn(C3CCC(F)(F)CC3)c2c1` (single isomer, unassigned) [Compound I-404], with less than 10 nM; and `Cn1cc(-n2cc(-c3ccc(C(=O)NC4(C(=O)O)C5CC6CC(C5)CC4C6)c(C(F)(F)F)n3)c3ccc(OC4CCN(c5ncccn5)CC4)cc32)cn1` (centres unmarked) [Compound I-328], with less than 10 nM; and `O=C(NC1(C(=O)O)C2CC3CC(C2)CC1C3)c1ccc(-c2cn(-c3ncccc3C(F)(F)F)c3cc(OC4CCN(c5ncccn5)CC4)ccc23)nc1C(F)(F)F` (centres unmarked) [Compound I-316], with less than 10 nM. In the case of `COc1ccc2c(c1)CCN2c1ncc(C(=O)NC2(C(=O)O)C3CC4CC(C3)CC2C4)c(C(F)(F)F)n1` (centres unmarked) [Compound I-68], the EC50 lay within 10 to 100 nM. Same read-out and setting: under `O=C(NC1(C(=O)O)C2CC3CC(C2)CC1C3)c1ccc(-c2cn(C3CCC(F)CC3)c3cc(OC4CCN(c5ncc(F)cn5)CC4)ccc23)nc1C(F)(F)F` (single isomer, unassigned) [Compound I-398] stands less than 10 nM.

Regarding `O=C(NC1(C(=O)O)C2CC3CC(C2)CC1C3)c1ccc(-c2cn(-c3ccncc3C(F)(F)F)c3cc(OC4CCN(c5ncccn5)CC4)ccc23)nc1C(F)(F)F` (centres unmarked) [Compound I-329], the EC50 is less than 10 nM.

As to `CC1CC(Oc2ccc3c(-c4ncc(C(=O)NC5(C(=O)O)C6CC7CC(C6)CC5C7)c(C(F)(F)F)n4)cn(C4CCC(F)(F)CC4)c3c2)CCN1c1ncc(F)cn1` (single isomer, unassigned) [Compound I-386], the EC50 is less than 10 nM. Same read-out and setting: then `Cc1cnccc1-n1cc(-c2ccc(C(=O)NC3(C(=O)O)C4CC5CC(C4)CC3C5)c(C(F)(F)F)n2)c2ccc(OC3CCN(c4ncccn4)CC3)cc21` (centres unmarked) [Compound I-317], with less than 10 nM; and `COc1ccccc1-n1cc(-c2ccc(C(=O)NC3(C(=O)O)C4CC5CC(C4)CC3C5)c(C(F)(F)F)n2)c2ccc(OC3CCN(c4ncccn4)CC3)cc21` (centres unmarked) [Compound I-318], with less than 10 nM; and `O=C(NC1(C(=O)O)C2CC3CC(C2)CC1C3)c1cnc(-c2cn(C3CCC(F)CC3)c3cc(O[C@H]4CC[C@H](N5CC(F)(F)C5)CC4)ccc23)nc1C(F)(F)F` (single isomer, unassigned) [Compound I-510], with less than 10 nM. On the same count and under the same terms, under `CC1CN(c2ncccn2)CCC1Oc1ccc2c(-c3ncc(C(=O)NC4(C(=O)O)C5CC6CC(C5)CC4C6)c(C(F)(F)F)n3)cn(C3CCC(F)(F)CC3)c2c1` (single isomer, unassigned) [Compound I-405] stands less than 10 nM; under `N#Cc1ccc(-n2cc(-c3ccc(C(=O)NC4(C(=O)O)C5CC6CC(C5)CC4C6)c(C(F)(F)F)n3)c3ccc(OC4CCN(c5ncccn5)CC4)cc32)nc1` (centres unmarked) [Compound I-340], less than 10 nM.
